Assay [1] has as its target human SSTR-3 (Homo sapiens, UniProt P32745). In words: Somatostatin receptor binding assay, [125I-Tyr11]somatostatin-14, membranes of transfected CHO-K1 cells. The settings on record: 0.05 nM [125I-Tyr11]somatostatin-14, 30 min at 30° C., Ki=IC50/[1+(LC/LEC)], read-out: Ki hSSTR-3.
Assay [2] concerns the target human SSTR-5 (Homo sapiens, UniProt P35346). The assay is described as above. The settings on record: 0.05 nM [125I-Tyr11]somatostatin-14, 30 min at 30° C., Ki=IC50/[1+(LC/LEC)], read-out: Ki hSSTR-5.

Positions of bridges follow the written chain, without caps; N, C: chain ends. Non-standard residues stand in square brackets, D forms with d. Residues, ends and D or L forms follow the SMILES beside them.

Sequence of human SSTR-5 (P35346 whole entry): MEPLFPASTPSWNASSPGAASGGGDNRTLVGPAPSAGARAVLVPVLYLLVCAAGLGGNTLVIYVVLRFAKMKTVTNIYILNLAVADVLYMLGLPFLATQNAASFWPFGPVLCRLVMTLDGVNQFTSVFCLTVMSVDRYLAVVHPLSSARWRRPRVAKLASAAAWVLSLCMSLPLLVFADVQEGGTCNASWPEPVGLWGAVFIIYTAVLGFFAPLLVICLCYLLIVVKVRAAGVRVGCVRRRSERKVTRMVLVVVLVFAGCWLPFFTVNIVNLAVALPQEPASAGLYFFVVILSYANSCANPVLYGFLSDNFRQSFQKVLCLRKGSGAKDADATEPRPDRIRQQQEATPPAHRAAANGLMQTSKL
Sequence of human SSTR-3 (P32745 whole entry): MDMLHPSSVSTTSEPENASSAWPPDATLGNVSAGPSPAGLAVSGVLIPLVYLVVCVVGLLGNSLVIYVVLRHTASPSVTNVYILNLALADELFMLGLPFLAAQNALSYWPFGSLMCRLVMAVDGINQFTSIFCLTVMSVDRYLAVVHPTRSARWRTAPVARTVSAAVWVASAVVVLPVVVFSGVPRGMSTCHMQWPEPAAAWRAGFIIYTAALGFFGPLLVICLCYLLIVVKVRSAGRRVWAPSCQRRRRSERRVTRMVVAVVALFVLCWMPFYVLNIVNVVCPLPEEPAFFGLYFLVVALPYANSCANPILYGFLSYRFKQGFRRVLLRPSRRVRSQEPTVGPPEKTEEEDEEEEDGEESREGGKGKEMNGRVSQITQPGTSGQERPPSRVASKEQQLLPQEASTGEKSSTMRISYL

For orientation: Ki means a dissociation constant, usually derived from enzyme kinetics or from competition with a known ligand. In the case of `C[C@@H](O)[C@@H]1NC(=O)[C@H](CCCCN)NC(=O)[C@@H](Cc2c[nH]c3ccccc23)NC(=O)[C@H](Cc2ccccc2)NC(=O)[C@H](Cc2ccccc2)NC(=O)[C@@H](N)CSSC[C@@H](C(N)=O)NC(=O)[C@H](Cc2ccccc2)NC1=O` [BIM-23268, H-Cys-Phe-Phe-D-Trp-Lys-Thr-Phe-Cys-NH2] (H-CFF[dW]KTFC-NH2; disulfide 1-8), the values for the Ki in assay [1] and in assay [2] were 62 nM and 0.38 nM, respectively.

For the origin of these results see patent publication US7238666B2, “Method of inhibiting fibrosis with a somatostatin agonist” (Societe de Conseils de Recherches et d'Applications …, priority 1996, dated 2007).
